These results are taken from US20090211893A1, “Photo-Activatable Amino Acids” (priority 2005, published 2009).

One data set has as its system HA-tagged human PGRMC1. As to the kind of experiment: Competition of PGRMC1 cross-linking by natural amino acids. It is filed as cell-based. The conditions noted are these: 3 mM competing amino acid, COS7 cells in LM-4. Here is the method:
FIG. 4: Specificity of incorporation and cross-linking by photo-Met and photo-Leu. COS7 cells were transfected with HA-tagged human PGRMC1 and were grown in LM-4 in the absence or presence of photo-Leu (A) or photo-Met (B) with addition of 3 mM of the indicated competing amino acid. cross-linked products formed after UV-irradiation were detected by SDS-PAGE followed by western blotting against the HA-epitope. (C) COS7 cells were grown in the presence of 1.7 mM [1-^14C]photo-Met, a constant trace amount of [^3H]Phe and 3 mM of competing unlabeled amino acids as indicated in the legend. Protein was precipitated and protein-bound radioactivity was determined by scintillation counting. […] The control value obtained in the absence of competing amino acid (con) is set to 100. Data are average±SD of triplicate determinations.
If so, addition of the complementary naturally occurring amino acid should strongly reduce incorporation and inhibit photo-crosslinking. […] To find out if competition for cross-linking reflects competition for incorporation, we competed incorporation of [1-^14C]photo-Met with the same set of amino acids (FIG. 4c). […] It should be noted that Met, Val, Leu and Ile all are transported into cells by the L-type transport system^25, which presumably also transports the three photo-amino acids. The strong difference in competition by Met and Leu versus Val and Ile excludes competition at the level of uptake.

Data set [1] deals with COS7 cells. Briefly: Cell viability after UV irradiation by trypan blue exclusion. In kind it is cell-based, monkey. Here is the method:
COS7 (monkey kidney) cells were grown in DMEM high glucose (Gibco no. 11995; with L-glutamine and Na-pyruvate)+10% FCS. Typically, 3 cm2 of cells are needed for a cross-linking experiment with detection by western blotting. At about 70%, medium was replaced by LM-4 (DMEM lacking Met, Leu, Ile and Val and phenol red, supplemented with 5% dialyzed FCS) or by LM-2 (LM-4+1 mM of each Ile and Val). Photo-amino acids were added to a final concentration of 4 mM photo-Leu and photo-Ile, 1.7 mM photo-Met and cells were cultivated for further 22 h followed by washing with PBS and UV-irradiation using a 200 W high pressure mercury lamp (Oriel Photomax) with a glass filter to remove wavelengths shorter 310 nm. The samples were placed at a distance of 38 cm to the light source, corresponding to a illuminated area of 105 mm diameter. […] We used an irradiation time 1-3 min for experiments with living cells. […] Lysis of cells, SDS-PAGE and western blotting were done as described^33. For immunoprecipitation, cells were lysed in 20 mM Hepes/NaOH pH 7.4, 100 mM NaCl, 5 mM EDTA, 1% Triton X 100, 0.5% sodium deoxycholate, the lysate was cleared with protein-A beads and incubated with beads that were preincubated with polyclonal anti-myc or anti-HA antibody. Beads were collected and washed three times each with 20 mM Hepes/NaOH pH 7.25, 0.5% CHAPS and with 100 mM Tris-HCl pH 8.3, 150 mM NaCl, 2 mM EDTA, 0.1% w/v SDS, 0.5% w/v Nonidet P40, 0.5% w/v sodiumdeoxycholate. Proteins were eluted from beads by heating with reducing SDS-PAGE sample buffer.
Unnatural amino acids frequently are toxic to cells. To find out if this is the case for photo-amino acids of the invention, we monitored in COS7 cells protein biosynthesis by incorporation of [^3H]Phe and viability by trypan blue exclusion of cells grown in the presence or absence of the photo-amino acids photo-Leu, photo-Met and photo-Ile. Due to the lack of two essential amino acids in the growth medium, protein biosynthesis is reduced to about 65% of that in a full growth medium. […] Although cells grew slightly slower than in full growth medium, viability (Table 2) and cell morphology (not shown) were unaffected.

Data set [2] relates to COS7 cells. Described as above. It is filed as cell-based, monkey. The source holds these as a separate data set.

Turning to `CC1(CCC(N)C(=O)O)N=N1` [photo-Met, L-2-amino-5,5′-azi-hexanoic acid], the “competition of cross-linking by Met, Val, Leu and Ile” value in the data set on HA-tagged human PGRMC1 was “mainly by Met, and to a lower extent by Leu”. Also, in the data set on HA-tagged human PGRMC1, the “effect of Val and Ile on cross-linking” value was “did not compete, but even enhance”. Further, the Cell viability with COS7 cells [1] (1 min UV) was found to be 99.4 ± 0.5%; in the data set on COS7 cells [1] (1 min UV + 1 h chase), 96.1 ± 1.3%; with COS7 cells [1] (3 min UV), 99.5 ± 0.4%; in the data set on COS7 cells [1] (3 min UV + 1 h chase), 91.9 ± 6.8%; in the data set on COS7 cells [1] (no UV + 1 h chase at 37 degree Celsius in PBS), 99.4 ± 0.4%; in the data set on COS7 cells [1] (no UV, percent ± SD of viable cells) it was 99.8 ± 0.3%. The Cell viability with COS7 cells [2] (10 min UV) is 99.4 ± 0.3%; in the data set with COS7 cells [2] (10 min UV + 1 h chase), 91.9 ± 1.4%; with COS7 cells [2] (30 min UV), 98.7 ± 0.4%; in the data set with COS7 cells [2] (30 min UV + 1 h chase), 17.4 ± 5.3%.
